Experimental data as given in ChEMBL document CHEMBL1159269, “Mechanistic evaluation of new plant-derived compounds that inhibit HIV-1 reverse transcriptase” (J Nat Prod, 1995).

Legend:
DNA = assay: Binding affinity to calf thymus DNA assessed as inhibition of DNA peak at 260 nm wavelength at 250 ug/ml by HPLC; assay type: nucleic-acid assay; conditions: Bos taurus
[1] = target: Human immunodeficiency virus type 1 reverse transcriptase (Human immunodeficiency virus 1) (UniProt Q72547); assay: Inhibition of HIV1 reverse transcriptase p66/p51 at 50 ug/ml in presence of 2.5 ug/ml BSA
[2] = Inhibition of AMV reverse transcriptase; set-up: species or system Avian myeloblastosis virus
[3] = target: T1, Human immunodeficiency virus type 1 reverse transcriptase (Human immunodeficiency virus 1, UniProt Q72547); assay: Inhibition of HIV1 reverse transcriptase p66/p51
LNCaP = assay: Cytotoxicity against human LNCAP cells; assay type: functional; conditions: read-out: ED50 (the source's name)
[4] = target: T1, Human immunodeficiency virus type 1 reverse transcriptase; assay: Inhibition of HIV1 reverse transcriptase p66/p51 using TTP substrate by non-competitive inhibition type assay
Lu1 = assay: Cytotoxicity against human Lu1 cells; assay type: functional; conditions: read-out: ED50 (the source's name)
[5] = Inhibition of RNA polymerase
ZR-75-1 = assay: Cytotoxicity against human ZR-75-1 cells; assay type: functional; conditions: read-out: ED50 (the source's name)
[6] = target: Human immunodeficiency virus type 1 reverse transcriptase (Human immunodeficiency virus 1) (UniProt Q72547); assay: Inhibition of HIV1 reverse transcriptase p66/p51 at 50 ug/ml in presence of 1000 ug/ml BSA
[7] = Inhibition of HIV2 reverse transcriptase p66/p51; set-up: species or system Human immunodeficiency virus 2
KB = assay: Cytotoxicity against human KB cells; assay type: functional; conditions: read-out: ED50 (the source's name)
[8] = target: T1, Human immunodeficiency virus type 1 reverse transcriptase; assay: Inhibition of HIV1 reverse transcriptase p66/p51 using template-primer [oligo(dT)12-18 + poly(rA)] by mixed type competitive inhibition assay
DNA polymerase beta = DNA polymerase beta (Homo sapiens, UniProt P06746); assay: Inhibition of DNA polymerase beta
[9] = target: Human immunodeficiency virus type 1 reverse transcriptase (Human immunodeficiency virus 1) (UniProt Q72547); assay: Inhibition of HIV1 reverse transcriptase p66/p51 at 50 ug/ml in presence of 250 ug/ml BSA
[10] = target: Human immunodeficiency virus type 1 reverse transcriptase (Human immunodeficiency virus 1) (UniProt Q72547); assay: Inhibition of HIV1 reverse transcriptase p66/p51 at 200 ug/ml in presence of 1000 ug/ml BSA
[11] = target: T1, Human immunodeficiency virus type 1 reverse transcriptase; assay: Inhibition of HIV1 reverse transcriptase p66/p51 using template-primer [oligo(dT)12-18 + poly(rA)] by competitive type inhibition assay
[12] = target: Human immunodeficiency virus type 1 reverse transcriptase (Human immunodeficiency virus 1) (UniProt Q72547); assay: Inhibition of HIV1 reverse transcriptase p66/p51 at 200 ug/ml in presence of 250 ug/ml BSA
[13] = target: T1, Human immunodeficiency virus type 1 reverse transcriptase; assay: Inhibition of HIV1 reverse transcriptase p66/p51 using TTP substrate by mixed type competitive inhibition assay

| inhibition (DNA) [%] | inhibition [1] [%] | IC50 [2] [µM] | IC50 [3] [µM] | Ki [4] [µM] | IC50 [5] [µM] | inhibition [6] [%] | IC50 [7] [µM] | Ki [8] [µM] | IC50 (DNA polymerase beta) [µM] | inhibition [9] [%] | inhibition [10] [%] | Ki [11] [µM] | inhibition [12] [%] | Ki [13] [µM] | SMILES | EC50 (LNCaP) [mg/L] | EC50 (Lu1) [mg/L] | EC50 (ZR-75-1) [mg/L] | EC50 (KB) [mg/L] |
| --- | --- | --- | --- | --- | --- | --- | --- | --- | --- | --- | --- | --- | --- | --- | --- | --- | --- | --- | --- |
| 1.3 | 99 | 21.9 | 24.3 | 7.1 | 92.8 | 19 | 29.6 | 10 | 7.4 | 52 | – | – | – | – | C=C1C(=O)O[C@@H](CCCCCCCCCCCCC)[C@@H]1C(=O)O [PROTOLICHESTERINIC ACID] | > 20 | > 20 | > 20 | > 20 |
| 71 | – | 81 | 42.9 | – | 272 | – | 56.6 | – | 57.7 | – | 82 | 6.7 | 89 | 7.1 | COc1cc(O)c2c(=O)c3c(O)c(-c4c(O)c([C@@H]5O[C@H](CO)[C@@H](O)[C@H](O)[C@H]5O)c(O)c5c(=O)cc(-c6ccc(O)c(O)c6)oc45)cc(O)c3oc2c1 | > 20 | > 20 | > 20 | > 20 |
| – | – | – | 7.2 | – | – | – | – | – | – | – | – | – | – | – | CC1=C(C#C/C(C)=C/C=C/C(C)=C/C=C/C=C(C)/C=C/C=C(\C)C(=O)C[C@@]23O[C@]2(C)C[C@@H](O)CC3(C)C)C(C)(C)C[C@H](O)C1 [HALOCYNTHIAXANTHIN] | – | – | – | – |
| 0 | 94 | 15.1 | – | 8.3 | > 338 | 0.8 | 59 | 6.7 | 2.2 | 19 | – | – | – | – | CC1(C)CC[C@]2(C(=O)O)CC=C3[C@]4(C)CC[C@H]5C(C)(C)[C@@H](OC(=O)c6ccc(O)cc6)C[C@@H](O)[C@]5(C)[C@H]4CC[C@@]3(C)[C@H]2C1 | > 20 | > 20 | > 20 | > 20 |

The remaining lines, values behind:

| SMILES | inhibition (DNA) [%] | inhibition [1] [%] | IC50 [2] [µM] | IC50 [3] [µM] | Ki [4] [µM] | IC50 [5] [µM] | inhibition [6] [%] | IC50 [7] [µM] | Ki [8] [µM] | IC50 (DNA polymerase beta) [µM] | inhibition [9] [%] | inhibition [10] [%] | Ki [11] [µM] | inhibition [12] [%] | Ki [13] [µM] | EC50 (LNCaP) [mg/L] | EC50 (Lu1) [mg/L] | EC50 (ZR-75-1) [mg/L] | EC50 (KB) [mg/L] |
| --- | --- | --- | --- | --- | --- | --- | --- | --- | --- | --- | --- | --- | --- | --- | --- | --- | --- | --- | --- |
| COc1cc2c(ccc3c4cc(OC)c(OC)cc4c[n+](C)c23)cc1O | 100 | – | – | – | – | – | – | – | – | – | – | – | – | – | – | – | – | – | – |
| CCCc1cc(=O)oc2c3c(c4c(c12)OC(C)(C)C=C4)O[C@H](C)[C@@H](C)[C@@H]3O [CALANOLIDE A] | – | – | – | 1 | – | – | – | – | – | – | – | – | – | – | – | – | – | – | – |
| Cc1cn([C@H]2C[C@H](N=[N+]=[N-])[C@@H](CO)O2)c(=O)[nH]c1=O [ZIDOVUDINE] | – | – | 0.43 | – | – | > 20 | – | 0.2 | – | > 20 | – | – | – | – | – | – | – | – | – |
